Where a name gives a salt, the structure may show the parent alone.

Chain of Sphingosine 1-phosphate receptor 1 (P21453 whole entry): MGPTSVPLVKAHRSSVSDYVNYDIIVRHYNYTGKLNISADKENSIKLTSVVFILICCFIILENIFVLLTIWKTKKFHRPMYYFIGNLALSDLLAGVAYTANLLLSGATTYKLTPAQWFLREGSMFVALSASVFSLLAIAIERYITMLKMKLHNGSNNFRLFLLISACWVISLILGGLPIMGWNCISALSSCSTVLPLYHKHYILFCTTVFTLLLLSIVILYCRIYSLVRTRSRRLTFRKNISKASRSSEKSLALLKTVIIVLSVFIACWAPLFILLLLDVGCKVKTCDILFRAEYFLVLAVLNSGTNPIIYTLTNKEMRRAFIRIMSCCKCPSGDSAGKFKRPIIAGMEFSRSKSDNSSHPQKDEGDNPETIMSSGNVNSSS

The first assay addresses Sphingosine 1-phosphate receptor 1 (Homo sapiens, UniProt P21453). Kind of assay: S1P1 agonism potentiation – cell-based, potentiator mode, 60K MLSMR set, dose response (AID 466).
Details: not given
A word on the EC50: it is the concentration at which the effect is half-maximal. As to `Cc1ccccc1OCCCCc1c(C)n[nH]c1C` [SMR000103095], the EC50 came out at 6.51 µM.

In the case of `CCc1c(C)sc(NC(=O)c2cc(-c3ccco3)on2)c1C#N` [MLS000087225], the EC50 is 3.67 µM.

As for `Cc1csc(NC(=O)C(Cc2ccccc2)n2cccc2)n1` (stereo not drawn) [MLS000119019], the half-maximal effective concentration (EC50) is 2.28 µM.

On to `CC1CCc2nc(NC(=O)CSc3nc4ccccc4o3)sc2C1` (stereo not drawn) [2-(1,3-benzoxazol-2-ylsulfanyl)-N-(6-methyl-4,5,6,7-tetrahydro-1,3-benzothiazol-2-yl)acetamide], for which the EC50 is greater than 30 µM.

Regarding `Cc1cc(C(=O)CSc2nnnn2-c2ccc(O)cc2)c(C)n1Cc1ccc2c(c1)OCO2` [1-(2,5-dimethyl-1-piperonyl-pyrrol-3-yl)-2-[[1-(4-hydroxyphenyl)tetrazol-5-yl]thio]ethanone], the EC50 was 6.14 µM.

On to `Cc1ccc(-c2csc3ncnc(Sc4nnc(CN5CCCCCC5=O)o4)c23)cc1` [1-[[5-[5-(4-methylphenyl)thieno[2,3-d]pyrimidin-4-yl]sulfanyl-1,3,4-oxadiazol-2-yl]methyl]azepan-2-one], for which the EC50 amounted to 2.6 µM.

Regarding `O=C(CCC(=O)N(Cc1ccco1)C(C(=O)NC1CCCC1)c1ccncc1)Nc1cccnc1` (stereo not drawn) [MLS000033292], the EC50 was greater than 95 µM.

Take `CC1=NC(=O)NC(c2ccccc2)C1C(=O)OCc1ccc2c(c1)OCO2` (stereo not drawn) [1,3-benzodioxol-5-ylmethyl 6-methyl-2-oxidanylidene-4-phenyl-3,4-dihydro-1H-pyrimidine-5-carboxylate]: the EC50 came out at 3.42 µM.

Turning to `COc1cccc(N2CCN(c3ncnc4c3[nH]c3ccccc34)CC2C)c1` (stereo not drawn) [4-[4-(3-methoxyphenyl)-3-methyl-1-piperazinyl]-5H-pyrimido[5,4-b]indole], the EC50 came out at 3.57 µM.

Take `c1ccc(CN2CCN(c3ncnc4c3[nH]c3ccccc34)CC2)cc1` [MLS000078384]: the EC50 was 3.95 µM.

As to `COc1cc(-c2noc(C3CCCN(S(=O)(=O)c4cccc(Cl)c4)C3)n2)cc(OC)c1OC` (stereo not drawn) [1-(3-Chloro-benzenesulfonyl)-3-[3-(3,4,5-trimethoxy-phenyl)-[1,2,4]oxadiazol-5-yl]-piperidine], the 50% effective concentration (EC50) was found to be 2.6 µM.

For `CCn1c(-c2cccc(Cl)c2)n[nH]c1=S` [SMR000104244], the EC50 was greater than 95 µM.

For the compound `COCCn1c(C)cc(C(=O)CSc2nc3ccccc3c(=O)[nH]2)c1C` [2-[[2-[1-(2-methoxyethyl)-2,5-dimethyl-3-pyrrolyl]-2-oxoethyl]thio]-1H-quinazolin-4-one], the EC50 amounted to 64.4 µM.

Take `CCOC(=O)C1C(=O)C=C(c2ccc(OC)cc2)CC1c1ccco1` (stereo not drawn) [6-(2-furanyl)-4-(4-methoxyphenyl)-2-oxo-1-cyclohex-3-enecarboxylic acid ethyl ester]: the EC50 is 3.37 µM.

Consider `O=C(Nc1ccc(-c2noc(CCc3ccccc3)n2)cc1)c1cccnc1` [MLS000047253], for which the EC50 turned out to be 3.4 µM.

On to `CCOC(=O)Nc1ccc2c(c1)N(C(=O)CCN(C)C)c1ccccc1S2` [MLS000038082], for which the EC50 is 48.7 µM.

For `O=C(Nc1ccc(N2CCOCC2)c(Cl)c1)c1cccc(F)c1` [MLS000066209], the EC50 amounted to 0.935 µM.

Regarding `CCCCc1ccc(C2C(C#N)C(=N)SC(=N)C2C#N)s1` (stereo not drawn) [2,6-bis(azanyl)-4-(5-butylthiophen-2-yl)-4H-thiopyran-3,5-dicarbonitrile], the EC50 was 13.7 µM.

As to `COc1cc(C#CC#CCN2CCCCC2)ccc1O` [2-methoxy-4-(5-piperidin-1-ylpenta-1,3-diynyl)phenol;hydrochloride], the concentration giving a half-maximal response (EC50) was found to be 7.1 µM.

In the case of `CCOc1ccc(-c2nc(-c3ccccc3)no2)cc1OCC` [5-(3,4-diethoxyphenyl)-3-phenyl-1,2,4-oxadiazole], the EC50 was found to be 0.107 µM.

Turning to `COc1ccc(-c2n[nH]cc2-c2ccc3c(c2)OCCO3)c(O)c1` [(6E)-6-[4-(2,3-dihydro-1,4-benzodioxin-6-yl)-1,2-dihydropyrazol-3-ylidene]-3-methoxycyclohexa-2,4-dien-1-one], the EC50 amounted to 1.49 µM.

Turning to `CCOC(=O)N1CCN(C(=O)C2CCN(c3ncnc4c3sc3cccc(F)c34)CC2)CC1` [4-[1-(9-fluorobenzothiopheno[3,2-d]pyrimidin-4-yl)isonipecotoyl]piperazine-1-carboxylic acid ethyl ester], the EC50 came to 6.63 µM.

On to `Nc1nonc1C(=O)NCCNCc1cc(Br)ccc1OCc1ccccc1F` [4-amino-N-[2-[[5-bromo-2-(2-fluorobenzyl)oxy-benzyl]amino]ethyl]furazan-3-carboxamide;hydrochloride], for which the EC50 worked out at 8.9 µM.

`O=C(Nc1ccc(Cl)cc1)N1CCC(c2nc(-c3ccc(F)cc3)no2)CC1` [4-[3-(4-Fluoro-phenyl)-[1,2,4]oxadiazol-5-yl]-piperidine-1-carboxylic acid (4-chloro-phenyl)-amide]: the EC50 was 5.9 µM.

On to `Cc1cc(C(=O)CSc2nc3ccccc3c(=O)n2C)c(C)n1Cc1ccc2c(c1)OCO2` [2-[2-[1-(1,3-benzodioxol-5-ylmethyl)-2,5-dimethyl-pyrrol-3-yl]-2-oxidanylidene-ethyl]sulfanyl-3-methyl-quinazolin-4-one], for which the EC50 turned out to be 5.57 µM.

As for `CCc1nnc(NC(=O)C2CCCCC2)s1` [MLS000104554], the EC50 is greater than 95 µM.

For `O=C(Nc1c(F)cc(F)cc1Br)c1cc(-c2ccc(O)cc2)on1` [MLS000116264], the EC50 amounted to 2.14 µM.

For `Cc1cc2nc(-c3ccc(NC(=O)C(C)C)cc3)oc2cc1C` [MLS000109473], the EC50 was 2.77 µM.

Turning to `Cc1cc(C=Nn2cnnc2)c(C)n1-c1ccc(OCc2ccc(F)cc2)cc1` [MLS000112167], the EC50 turned out to be 0.502 µM.

As for `COc1ccc(C(=O)C(CN2CCOCC2)c2ccccc2)cc1F` (stereo not drawn) [1-(3-Fluoro-4-methoxy-phenyl)-3-morpholin-4-yl-2-phenyl-propan-1-one], the EC50 was determined as 31.1 µM.

As for `CCCCn1ccnc1C(=O)c1cccc(S(=O)(=O)N2c3ccccc3CC2C)c1` (stereo not drawn) [(1-butyl-2-imidazolyl)-[3-[(2-methyl-2,3-dihydroindol-1-yl)sulfonyl]phenyl]methanone], the EC50 turned out to be 9.16 µM.

As for `CCC(NCCOc1ccc(Cl)cc1)=C1C(=O)N(C)C(=O)N(C)C1=O` [5-[1-[2-(4-chlorophenoxy)ethylamino]propylidene]-1,3-dimethyl-1,3-diazinane-2,4,6-trione], the EC50 was 5.34 µM.

With `CCCC(=O)Nc1ccc(-c2nc3cc(C)ccc3o2)cc1` [MLS000061826], the EC50 came out at 6.36 µM.

The assay is the same for the next values; noted with them: inactive by the depositor's call.
`Cc1cccc(-c2nc(CSCC(=O)N3CCN(c4ccccn4)CC3)c(C)o2)c1` [1-[({[5-methyl-2-(3-methylphenyl)-1,3-oxazol-4-yl]methyl}thio)acetyl]-4-pyridin-2-ylpiperazine]: the EC50 came to 12.2 µM.

For `Cc1cccc(N2CCN(C(=O)C3CCCN(S(=O)(=O)c4cccc5cccnc45)C3)CC2)c1C` (stereo not drawn) [MLS000120299], the EC50 amounted to 16.1 µM.

Turning to `CC(=O)N1CCCc2cc(S(=O)(=O)NCCC3=CCCCC3)ccc21` [1-acetyl-N-(2-cyclohex-1-en-1-ylethyl)-1,2,3,4-tetrahydroquinoline-6-sulfonamide], the EC50 turned out to be 13.4 µM.

For the compound `Cc1ccc(C(=O)Nc2nc(COc3ccccc3)cs2)s1` [5-methyl-N-[4-(phenoxymethyl)-1,3-thiazol-2-yl]thiophene-2-carboxamide], the EC50 came out at 11.2 µM.

Regarding `CCOC(=O)c1ccc2nc(NC(=O)c3ccco3)sc2c1` [2-(2-furoylamino)-1,3-benzothiazole-6-carboxylic acid ethyl ester], the EC50 worked out at 18.7 µM.

For the compound `O=C(Nc1ccc(C(F)(F)F)cc1)C1CCCN1S(=O)(=O)c1cccc2cccnc12` (stereo not drawn) [1-(8-quinolinylsulfonyl)-N-[4-(trifluoromethyl)phenyl]-2-pyrrolidinecarboxamide], the EC50 was 10.2 µM.

`CCc1ccc2c(COC(=O)c3n[nH]c4ccccc34)cc(=O)oc2c1` [(7-ethyl-2-oxochromen-4-yl)methyl 1H-indazole-3-carboxylate]: the EC50 was determined as 10.4 µM.

Take `Nn1c(Nc2ccccc2)nc2sc3c(c2c1=O)CCC3` [2-amino-3-anilino-7,8-dihydro-6H-cyclopenta[2,3]thieno[2,4-b]pyrimidin-1-one]: the 50% effective concentration (EC50) was 21.7 µM.

Turning to `CC1=CC(C)(C)Nc2ccc(OC(=O)c3cccnc3)cc21` [(2,2,4-trimethyl-1H-quinolin-6-yl) pyridine-3-carboxylate], the EC50 is 11 µM.

Consider `CCCC(=O)c1ccc(N2CCN(C(=O)c3ccccc3Br)CC2)c(F)c1` [1-[4-[4-(2-bromobenzoyl)piperazin-1-yl]-3-fluorophenyl]butan-1-one], for which the EC50 stood at 12.1 µM.

Turning to `Cc1ccc2nc(C(F)(F)F)c(C#N)c(N)c2c1` [4-amino-6-methyl-2-(trifluoromethyl)-3-quinolinecarbonitrile], the half-maximal effective concentration (EC50) turned out to be 12 µM.

In the case of `Oc1nnc(Sc2ncnc3sccc23)n1CCc1ccccc1` [4-(2-phenylethyl)-3-(4-thieno[2,3-d]pyrimidinylthio)-1H-1,2,4-triazol-5-one], the half-maximal effective concentration (EC50) came out at 15 µM.

On to `CCn1nc(-c2cccs2)nc2c(=O)n(C)c(=O)nc1-2` [1-ethyl-6-methyl-3-thiophen-2-yl-pyrimido[5,4-e][1,2,4]triazine-5,7-dione], for which the 50% effective concentration (EC50) was 31.8 µM.

As for `Cc1cc(C(=O)N2CCN(C(c3ccccc3)c3ccccc3)CC2)no1` [(4-benzhydrylpiperazin-1-yl)-(5-methyl-1,2-oxazol-3-yl)methanone], the EC50 was 19.1 µM.

As for `CCOc1ccc(Cc2nc(-c3nonc3N)no2)cc1OCC` [4-[5-(3,4-diethoxybenzyl)-1,2,4-oxadiazol-3-yl]-1,2,5-oxadiazol-3-amine], the concentration for a half-maximal effect (EC50) came to 12.6 µM.

Consider `O=C(Nc1nc(-c2nc3ccccc3s2)cs1)c1ccc(S(=O)(=O)N2CCOCC2)cc1` [MLS000087900], for which the EC50 is 15.5 µM.

Take `CC1=C(/C=C/C(C)=C/C=C/C(C)=C/C(=O)O)C(C)(C)CCC1` [ALL-TRANS-RETINOIC ACID]: the concentration for a half-maximal effect (EC50) worked out at 34.1 µM.

In the case of `CC(=O)N1C=CN(C(C)=O)C(c2cn(C)c3ccccc23)C1c1cn(C)c2ccccc12` (stereo not drawn) [1-[4-acetyl-2,3-bis(1-methyl-3-indolyl)-2,3-dihydropyrazin-1-yl]ethanone], the EC50 was 20.9 µM.

`Cc1nn(Cc2ccc(Cl)cc2)c(C)c1NC(=O)c1cc(-c2ccco2)on1` [MLS000087233]: the half-maximal effective concentration (EC50) was 14.1 µM.

With `COc1ccccc1-c1nc(-c2ccc(Br)cc2)no1` [3-(4-bromophenyl)-5-(2-methoxyphenyl)-1,2,4-oxadiazole], the EC50 turned out to be 10.1 µM.

The record behind these values is BindingDB's records for doi:10.7270/Q2ZC817P (The Scripps Research Institute Molecular Screening Center, 2007).
